Test results published in US20120071475A1, “UREA DERIVATIVES HAVING PI3K-INHIBITING ACTIVITY” (SHIONOGI & CO., LTD., priority 2009, published 2012).
Like-named read-outs stand apart in the source and are kept apart here.

Columns and labels:
PI3Kγ = PI3Kγ (Homo sapiens, UniProt P48736); experiment: PI3Kγ inhibitory activity (Ki value); assay type: biochemical
Method in brief: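 Ki derived from IC50 measured at final compound levels of 50–0.05 μmol/L (HTRF read-out; 40 μmol/L ATP, 10 mmol/L MgCl2, 5 mmol/L DTT), IC50 by logistic or two-point linear fit. ATP Km from Lineweaver-Burk over 0.625–80 μmol/L ATP; Ki = IC50/(1+[ATP]/Km).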

PI3Kα = PI3Kα (Homo sapiens, UniProt P42336); experiment: PI3Kα inhibitory activity (Ki value); assay type: biochemical
Experimental: According to Example 2 above, after 80 μg/mL PI-3 kinase γ of the enzyme solution (80 μg/mL PI-3 kinase γ, 10 mmol/L MgCl2, 5 mmol/L DTT) was changed to 0.8 μg/mL PI-3 kinase α, an inhibition ratio was calculated by a method similar to the method for measuring PI3Kγ inhibitory activity, and then defined as the PI3Kα inhibitory activity.
The α inhibitory activity (Ki value) of a compound was evaluated according to the following procedure.
According to Example 4 above, a Km value for PI3Kα was determined to calculate a Ki value.

[1] = tested on: CYP1A2, CYP2C9, CYP2C19, CYP2D6 and CYP3A4 (one value for the five species); experiment: CYP inhibition test, five CYP species together (5CYPs_IC50; pooled human liver microsome); assay type: in vitro ADME; details: human, microsomes
Method in brief: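 Pooled human liver microsomes (0.2 mg/mL) in 50 mM Hepes were incubated with a substrate cocktail of 0.5 μM ethoxyresorufin, 100 μM tolbutamide, 50 μM S-mephenytoin, 5 μM dextromethorphan and 1 μM terfenadine plus NADPH for 15 min at 37 °C. Compound tested at 1–20 μM (4 points). Metabolites read by fluorescence or LC/MS/MS, and IC50 derived by logistic fit against a DMSO control.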

hERG channel (IKr) = target: T1, hERG channel (IKr) (Homo sapiens, UniProt Q12809); experiment: hERG test (whole-cell patch-clamp, IKr in HEK293 cells); assay type: cell-based; details: human, HEK293 cells expressing hERG channel, pH 7.4, inhibition of maximum tail current (IKr), compound 1 μM
T1 construct: expressed in transfected cells; host or cells: HEK293
Method in brief: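 hERG-expressing HEK293 cells, automated whole-cell patch clamp: hold −80 mV, +50 mV for 2 s, then −50 mV for 2 s to record IKr tail current. Compound in extracellular solution (pH 7.4) for 10 min at room temperature; inhibition of maximum tail current calculated versus pre-application and compared with 0.1% DMSO vehicle.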

[2] = class symbols, read-out: PI3K γ Ki
[3] = class symbols, read-out: PI3K α Ki

T1 sequence (Q12809 whole entry): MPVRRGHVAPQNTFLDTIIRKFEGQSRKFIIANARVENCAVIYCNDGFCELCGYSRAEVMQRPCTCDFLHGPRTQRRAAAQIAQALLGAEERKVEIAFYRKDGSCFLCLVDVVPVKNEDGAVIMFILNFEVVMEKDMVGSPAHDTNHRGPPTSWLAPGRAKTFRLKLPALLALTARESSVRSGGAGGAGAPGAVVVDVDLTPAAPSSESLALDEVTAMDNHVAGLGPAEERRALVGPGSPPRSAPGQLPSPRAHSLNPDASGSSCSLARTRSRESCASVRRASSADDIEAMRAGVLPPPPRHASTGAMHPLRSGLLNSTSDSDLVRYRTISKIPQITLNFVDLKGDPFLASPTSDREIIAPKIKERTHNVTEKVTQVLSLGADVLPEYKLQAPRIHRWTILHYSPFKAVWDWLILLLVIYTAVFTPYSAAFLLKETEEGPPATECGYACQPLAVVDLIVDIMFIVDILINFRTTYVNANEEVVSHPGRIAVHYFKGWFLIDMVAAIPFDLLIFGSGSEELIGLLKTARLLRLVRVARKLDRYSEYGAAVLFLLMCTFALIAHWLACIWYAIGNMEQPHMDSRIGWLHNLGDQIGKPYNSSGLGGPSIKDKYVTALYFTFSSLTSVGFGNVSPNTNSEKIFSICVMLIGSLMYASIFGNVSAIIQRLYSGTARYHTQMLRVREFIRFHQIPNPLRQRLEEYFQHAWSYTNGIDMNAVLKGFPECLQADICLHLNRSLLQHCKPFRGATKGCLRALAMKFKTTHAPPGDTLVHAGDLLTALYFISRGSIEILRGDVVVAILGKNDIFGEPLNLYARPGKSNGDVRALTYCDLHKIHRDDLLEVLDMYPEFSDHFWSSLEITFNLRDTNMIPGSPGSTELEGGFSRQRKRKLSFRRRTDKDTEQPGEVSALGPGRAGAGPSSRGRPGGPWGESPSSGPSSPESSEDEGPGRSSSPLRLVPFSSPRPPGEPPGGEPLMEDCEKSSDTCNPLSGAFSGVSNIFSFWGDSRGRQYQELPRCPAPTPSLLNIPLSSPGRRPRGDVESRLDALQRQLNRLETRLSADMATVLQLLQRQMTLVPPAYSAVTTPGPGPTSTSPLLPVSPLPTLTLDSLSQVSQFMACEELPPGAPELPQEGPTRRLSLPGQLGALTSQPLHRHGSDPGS
Chain of PI3Kα (P42336 whole entry, species assumed): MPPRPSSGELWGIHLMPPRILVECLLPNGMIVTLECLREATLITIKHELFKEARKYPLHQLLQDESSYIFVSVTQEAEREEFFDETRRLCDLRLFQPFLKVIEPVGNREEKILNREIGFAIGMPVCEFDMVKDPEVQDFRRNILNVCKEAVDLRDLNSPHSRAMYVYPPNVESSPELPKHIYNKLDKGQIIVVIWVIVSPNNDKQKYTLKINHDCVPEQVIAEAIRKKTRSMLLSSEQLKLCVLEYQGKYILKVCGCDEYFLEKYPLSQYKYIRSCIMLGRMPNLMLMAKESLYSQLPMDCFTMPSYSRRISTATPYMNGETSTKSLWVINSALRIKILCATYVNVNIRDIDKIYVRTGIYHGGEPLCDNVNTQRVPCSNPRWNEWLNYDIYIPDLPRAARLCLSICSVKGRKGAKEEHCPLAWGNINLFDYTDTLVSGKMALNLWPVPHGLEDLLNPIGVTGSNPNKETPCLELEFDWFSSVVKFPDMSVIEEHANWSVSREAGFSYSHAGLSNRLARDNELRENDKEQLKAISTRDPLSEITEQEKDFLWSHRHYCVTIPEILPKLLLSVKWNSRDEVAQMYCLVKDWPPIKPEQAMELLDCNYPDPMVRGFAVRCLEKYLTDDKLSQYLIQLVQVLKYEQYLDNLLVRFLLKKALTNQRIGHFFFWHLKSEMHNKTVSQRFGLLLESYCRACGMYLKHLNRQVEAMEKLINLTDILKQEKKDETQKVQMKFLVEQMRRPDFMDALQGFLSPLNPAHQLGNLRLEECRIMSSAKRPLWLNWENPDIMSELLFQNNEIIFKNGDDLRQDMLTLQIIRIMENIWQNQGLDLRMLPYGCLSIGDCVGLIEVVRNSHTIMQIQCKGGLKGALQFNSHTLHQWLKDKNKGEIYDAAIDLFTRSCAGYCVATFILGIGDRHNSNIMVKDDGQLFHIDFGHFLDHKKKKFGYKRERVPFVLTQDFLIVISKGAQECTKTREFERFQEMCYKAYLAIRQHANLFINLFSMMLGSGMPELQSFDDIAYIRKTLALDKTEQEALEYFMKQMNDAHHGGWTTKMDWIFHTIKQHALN
Chain of PI3Kα (P27986 whole entry partner, species assumed): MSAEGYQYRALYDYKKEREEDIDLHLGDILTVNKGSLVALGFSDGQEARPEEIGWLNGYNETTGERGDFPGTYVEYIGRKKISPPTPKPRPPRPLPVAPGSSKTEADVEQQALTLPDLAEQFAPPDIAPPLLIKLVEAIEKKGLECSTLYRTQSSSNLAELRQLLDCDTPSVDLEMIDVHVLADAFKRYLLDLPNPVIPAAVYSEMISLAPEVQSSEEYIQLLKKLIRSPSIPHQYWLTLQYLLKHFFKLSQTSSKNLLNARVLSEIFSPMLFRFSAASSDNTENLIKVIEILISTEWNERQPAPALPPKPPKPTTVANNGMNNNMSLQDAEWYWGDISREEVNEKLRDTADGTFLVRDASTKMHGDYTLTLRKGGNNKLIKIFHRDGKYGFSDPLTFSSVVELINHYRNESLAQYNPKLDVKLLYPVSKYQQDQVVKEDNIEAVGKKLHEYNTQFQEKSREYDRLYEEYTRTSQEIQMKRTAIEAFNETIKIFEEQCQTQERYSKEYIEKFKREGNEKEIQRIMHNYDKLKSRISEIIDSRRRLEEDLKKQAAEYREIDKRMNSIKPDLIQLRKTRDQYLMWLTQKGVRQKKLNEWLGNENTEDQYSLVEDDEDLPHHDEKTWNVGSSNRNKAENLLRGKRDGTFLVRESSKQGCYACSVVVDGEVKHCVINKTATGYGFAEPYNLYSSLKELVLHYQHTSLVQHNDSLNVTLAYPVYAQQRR
Chain of PI3Kγ (P48736 whole entry, species assumed): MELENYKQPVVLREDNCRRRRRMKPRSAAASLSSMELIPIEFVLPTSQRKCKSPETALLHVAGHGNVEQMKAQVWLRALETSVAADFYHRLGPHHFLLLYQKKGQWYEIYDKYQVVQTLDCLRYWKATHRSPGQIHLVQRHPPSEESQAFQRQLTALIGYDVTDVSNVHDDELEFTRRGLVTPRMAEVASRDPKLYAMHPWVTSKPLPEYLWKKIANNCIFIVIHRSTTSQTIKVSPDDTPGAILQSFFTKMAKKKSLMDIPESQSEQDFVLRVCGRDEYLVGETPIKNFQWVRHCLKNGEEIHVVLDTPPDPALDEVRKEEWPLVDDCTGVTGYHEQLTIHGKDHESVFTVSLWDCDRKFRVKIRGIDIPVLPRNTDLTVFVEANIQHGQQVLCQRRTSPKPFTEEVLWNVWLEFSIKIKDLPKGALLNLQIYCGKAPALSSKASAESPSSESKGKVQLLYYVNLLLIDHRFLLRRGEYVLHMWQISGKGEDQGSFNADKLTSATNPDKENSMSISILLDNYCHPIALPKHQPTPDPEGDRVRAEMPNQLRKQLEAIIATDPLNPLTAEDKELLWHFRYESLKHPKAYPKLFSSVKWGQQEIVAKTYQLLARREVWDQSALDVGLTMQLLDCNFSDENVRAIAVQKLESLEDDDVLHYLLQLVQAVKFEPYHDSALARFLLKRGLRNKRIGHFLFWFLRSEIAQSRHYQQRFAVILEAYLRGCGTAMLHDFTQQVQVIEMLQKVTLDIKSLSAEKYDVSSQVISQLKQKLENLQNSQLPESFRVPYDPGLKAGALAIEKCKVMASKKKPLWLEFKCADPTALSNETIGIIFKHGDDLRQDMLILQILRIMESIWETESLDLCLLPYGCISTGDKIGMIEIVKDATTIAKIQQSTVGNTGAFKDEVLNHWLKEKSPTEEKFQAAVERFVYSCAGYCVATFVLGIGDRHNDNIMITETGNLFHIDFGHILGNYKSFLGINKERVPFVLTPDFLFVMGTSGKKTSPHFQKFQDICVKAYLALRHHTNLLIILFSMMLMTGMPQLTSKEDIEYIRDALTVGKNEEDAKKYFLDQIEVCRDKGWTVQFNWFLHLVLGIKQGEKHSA

Structure (SMILES)	Ki (PI3Kγ; [2])	Ki (PI3Kγ; read-out: PI3Kγ Ki value)	Ki (PI3Kα; [3])	Ki (PI3Kα; read-out: PI3Kα Ki value)	IC50 at 15 min [1]	inhibition at 10 min, 1 µM (hERG channel (IKr))
COc1cc(N2CCc3nc(NC(=O)Nc4ccccc4C(=O)NC(C)C)sc3C2)nc(OC)n1 [Compound I-12]	≤ 30 nM	9.6 nM	> 3000 nM	> 12000 nM		
COc1cc(N2CCc3nc(NC(=O)Nc4ccccc4C(=O)NCCF)sc3C2)nc(OC)n1 [Compound I-88]					≥ 10000 nM	5.7%
COc1nc(Cl)cc(N2CCc3nc(NC(=O)Nc4cnccc4C(=O)NC(C)C)sc3C2)n1 [Compound I-91]	≤ 3 nM	1.4 nM	> 3000 nM		≥ 10000 nM	0.9%
COc1cncc(-c2ccc3nc(NC(=O)Nc4ccccc4OCCC(C)C)cn3n2)c1 [Compound I-114]	≤ 300 nM	33 nM	≤ 3000 nM	1100 nM	> 20000 nM	
Cc1nc(NC(=O)Nc2ccccc2C(=O)NC(C)C)sc1-c1ccc(S(C)(=O)=O)c(F)c1 [Compound I-127]	≤ 30 nM	16 nM	> 3000 nM	> 7000 nM		0.6%
CC(C)NC(=O)c1ccccc1NC(=O)Nc1nc2c(s1)CN(c1cncc(C(F)(F)F)c1)CC2 [Compound I-131]	≤ 3 nM	0.8 nM	> 3000 nM		≥ 10000 nM	3.9%
COc1cc(N2CCc3nc(NC(=O)Nc4cn(C)nc4C(=O)NCC(F)(F)F)sc3C2)nc(OC)n1 [Compound I-148]	≤ 30 nM	5.5 nM	≤ 3000 nM			3.3%
Cc1nc(NC(=O)Nc2ccccc2C(=O)NC(C)C)sc1-c1csc(S(=O)(=O)N(C)CCN(C)C)c1 [Compound I-191]		300 nM			≥ 10000 nM	

Now from value to molecule, other results behind:

Ki (PI3Kγ; [2])	Ki (PI3Kγ; read-out: PI3Kγ Ki value)	Ki (PI3Kα; [3])	Ki (PI3Kα; read-out: PI3Kα Ki value)	IC50 at 15 min [1]	Structure (SMILES)	inhibition at 10 min, 1 µM (hERG channel (IKr))
≤ 3 nM	2.3 nM	> 3000 nM			COc1nc(Cl)cc(N2CCc3nc(NC(=O)Nc4ccccc4C(=O)NC4CCCOC4)sc3C2)n1 (stereo not drawn) [Compound I-197]	4.8%
				> 20000 nM	CC(C)NC(=O)c1ccccc1NC(=O)Nc1nc2c(s1)CN(c1cccc(S(C)(=O)=O)c1)CC2 [Compound I-198]	5.9%
				> 20000 nM	COc1cc(N2CCc3nc(NC(=O)Nc4ccccc4C(=O)NC4CCOCC4)sc3C2)nc(OC)n1 [Compound I-203]	6.7%
				≥ 10000 nM	C[C@@H](CO)NC(=O)c1ccccc1NC(=O)Nc1nc2c(s1)CN(c1cncc(S(C)(=O)=O)c1)CC2 [Compound I-211]	
≤ 3000 nM	830 nM	> 3000 nM		≥ 10000 nM	COc1cncc(-c2cc(NC(=O)Nc3ccccc3C(=O)NC(C)C)nn2C)c1 [Compound I-226]	
